For one data set, the system named is CD4, CCR5 and CXCR4. Nature of the data set: Expression of HIV receptors/co-receptors in primary CD4+ T cells (RT-qPCR). In kind it is cell-based, human. Particulars: primary CD4+ T cells of healthy HIV-negative donors, 12 nM PEP005, 72 hours. As to the method: (§1) FIG. 12: PEP005 down-modulates the expression of CD4, CCR5 and CXCR4 and inhibits HIV infection of primary CD4+ T cells ex vivo. (A) PEP005 inhibits expression of HIV receptors/co-receptors. […] The expression of CD4, CCR5 and CXCR4 genes was evaluated using RT-qPCR after normalizing for GAPDH. (B) and (C) PEP005 inhibits HIV infection of primary CD4+ T cells ex vivo. Primary CD4+ T cells were pre-treated with 12 or 24 nM PEP005 overnight and infected with the virus. The CD4+ T cells were incubated for 5 days without PEP005. The cells were collected for RT-qPCR targeting the HIV LTR region (B), or supernatants were collected for p24 ELISA (C). *, p<0.05; **, p<0.01.
Recent studies have shown that Prostratin and analogs down-modulate HIV receptor/co-receptor expression, which could have protective effects against the viral infection. Conversely, SAHA, known to induce latent HIV expression in HIV infected individuals receiving ART, was reported to increase susceptibility of naive CD4+ T cells to HIV acquisition. […] Primary CD4+ T cells from peripheral blood samples of healthy HIV-negative donors were treated with 12 nM PEP005 and evaluated for the expression levels of CD4, CCR5, and CCXR4 using RT-qPCR. […] The virological outcome in the CD4+ T cell cultures in vitro was monitored for 5 days.
A general note: Real-time PCR tracks product formation cycle by cycle.

In another data set the test system is J-Lat A1 cells. Nature of the data set: Cell viability of J-Lat A1 cells by Live/Dead dye staining. The class given is cell-based. Particulars: 2-40 nM PEP005. As to the method: FIG. 1: PEP005 induces reactivation of HIV latency in vitro. J-Lat A1 cells were exposed to different concentrations of PEP005 and virus reactivation was measured by GFP expression using flow cytometry. Cell viability was determined by Live/Dead dye staining. (A) Chemical Structure of PEP005. […] (D) PEP005 potently reactivates latent HIV in cell lines compared with other LRAs. J-Lat A1 cells were treated with 10 nM PEP005, 500 nM SAHA, 2 μM JQ1, 2 μM GSK343, 10 ng/ml TNF, 2 μM Prostratin, or 5 ng/ml PMA for 24 hours and the percentage of GFP expression was evaluated using flow cytometry. *, p<0.05; **, p<0.01.
J-Lat A1 cells (harboring a single copy of latent HIV LTR and one copy of green fluorescent protein gene under the HIV LTR control) or U1 cells (harboring two latent HIV genomes with defective Tat gene) were cultured in RPMI1640 medium with 10% fetal bovine serum (FBS) and 1% Pen/strep in a 37° C. incubator containing 5% CO2 [24,31]. Both of the cell lines were obtained from NIH AIDS Reagent Program. […] HIV reactivation was quantified by GFP expression using flow cytometry and the data were analyzed using FlowJo Software for J-Lat A1 cells, or by quantitative RT-PCR (RT-qPCR) for J-Lat A1 and U1 cells. Cell viability was evaluated using Live/Dead dye (Life Technologies) by flow cytometry. […]

In the next data set the test system is HIV-1 IIIB. Nature of the data set: HIV-1 infection of primary CD4+ T cells pre-treated with PEP005 (RT-qPCR, p24 ELISA). Particulars: pre-treatment with 12 or 24 nM PEP005; 3 and 5 days after HIV infection. In kind it is cell-based. On the procedure: as §1
Primary CD4+ T cells were isolated from peripheral blood samples of healthy HIV-negative donors and were pre-treated with PEP005 overnight. The CD4+ T cells were infected with HIV-1 (HIV-1 IIIB expanded in Jurkat T cells, 100 ng p24-gag) through spinoculation as described previously. Following an exposure of 24 hrs to HIV, the cells were washed. Cell supernatants were collected and HIV p24 levels were measured by ELISA. The cells were also collected for RNA extraction and measurement of viral transcripts by RT-qPCR.

Data set [1] has as its system J-Lat A1 cells, U1 cells, primary CD4+ T cells. Nature of the data set: Cell viability by MTT assay. In kind it is cell-based. Particulars: J-Lat A1 and U1 cell lines, 12 nM PEP005, 24 hours. On the procedure:
FIG. 7: PEP005 causes minimal cytotoxicity and T cell proliferation. To evaluate the impact of PEP005 on the cell viability, U1 cells (A), J-Lat A1 cells (B) and CD4+ T cells (C) were treated with 12 nM of PEP005 for 24 hours, the cell viability was examined with the MTT assay and the S-phase cell cycle progression was evaluated after BrdU incorporation using BrdU ELISA. 25-50 μM Etoposide or 100-150 μM Doxorubicin (Doxo) served as positive controls for MTT and BrdU assays respectively. Statistical analysis was performed in comparison with controls. **, p<0.01.
Cells were placed in 96-well plates and incubated for 24 or 72 h hrs with compounds. Cell viability was measured using MTT assay (Roche Laboratories), and cell proliferation/S-phase progression was determined by using BrdU ELISA kit (Cell signaling, #1863).

Setting [2] is: PBMCs of healthy HIV-negative donors, 12 nM PEP005, 24 or 72 hours.
[3] abbreviates: purified primary CD4+ T cells, 12 nM PEP005, 24 hrs.

We go through 1 molecule from patent US10376486B2, “Compositions and methods for reactivating latent viral infections” (priority 2014, dated 2019).

For the molecule `C/C=C(/C)C(=O)O[C@H]1C(C)=C[C@]23C(=O)[C@@H](C=C(CO)[C@@H](O)[C@]12O)[C@H]1[C@@H](C[C@H]3C)C1(C)C` [PEP005, (1aR,2S,5R,5aS,6S,8aS,9R,10aR)-5,5a-Dihydroxy-4-(hydroxymethyl)-1,1,7,9-tetramethyl-11-oxo-1a,2,5,5a,6,9,10,10a-octahydro-1H-2,8a-methanocyclopenta[a]cyclpropa[e][10]annulen-6-yl (2Z)-2-methylbut-2-enoate], the “expression of CD4, CCR5, and CXCR4” value in the data set with CD4, CCR5 and CXCR4 was “significant reduction”. Further, in the data set on primary CD4+ T cells (setting [2]), the “expression of CD38 (24 hr) and HLA-DR by flow cytometry” value is “no significant change”; the “expression of CD69 by flow cytometry” value is recorded as “increase in expression of CD69”. Further, in the data set on primary CD4+ T cells (setting [3]), the “expression of CD38, CD25, or HLA-DR by RT-qPCR” value is “did not cause any significant change” and the “expression of CD69 by RT-qPCR” value was “increased expression of CD69”. Besides, in the data set on J-Lat A1 cells, the cellular toxicity result is recorded as “absence of any apparent cellular toxicity”. In the data set on HIV-1 IIIB, the “HIV gene expression after HIV infection (RT-qPCR, HIV LTR region)” value is on record as “dampened HIV gene expression” and the “viral replication after HIV infection (p24 ELISA)” value is listed as “decreased the level of viral replication”. In data set [1], the “cellular toxicity (MTT)” value is “minimal levels of cellular toxicity”.
